Assay results published in patent publication US9409884B2 (Rigel Pharmaceuticals, Inc., priority 2012, dated 2016).
Where a name gives a salt, the structure may show the parent alone.

These compounds were tested against AMPK (assay: AMPK activation, enzyme-linked immunosorbent assay). Settings: Table 8, compounds of Table 1.
Type: biochemical
How it was run: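 AMPK activation by test compounds was measured by enzyme-linked immunosorbent assay.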

EC50 [µM]	Compound
< 0.1	N#Cc1ccc(N2CCC(Oc3ccc4oc(C(=O)NC5CCN(Cc6ccccc6)CC5)cc4c3)CC2)cc1 [Compound 1-71, N-(1-benzylpiperidin-4-yl)-5-(1-(4-cyanophenyl)piperidin-4-yloxy)benzofuran-2-carboxamide]
0.5 to 1	CC(C)(C)OC(=O)N1CCC(NC(=O)c2cc(OC3CCN(c4ccc(C(F)(F)F)cc4)CC3)ccn2)CC1 [Compound 1-12, tert-butyl 4-(4-(1-(4-(trifluoromethyl)phenyl)piperidin-4-yloxy)picolinamido) piperidine-1-carboxylate]
< 0.1	CC(C)(C)OC(=O)NCCCNC(=O)c1ccc(OC2CCN(c3ccc(C(F)(F)F)cc3)CC2)cn1 [Compound 1-49, tert-butyl 3-(5-(1-(4-(trifluoromethyl)phenyl)piperidin-4-yloxy)picolinamido) propylcarbamate]
< 0.1	N#Cc1ccc(CN2CCC(NC(=O)c3cc4cc(O[C@@H]5CCN(Cc6cnn(-c7ccc(C#N)cc7)c6)C[C@H]5F)ccc4o3)CC2)cc1 [Compound 1-166, N-(1-(4-cyanobenzyl)piperidin-4-yl)-5-((3,4-trans)-1-((1-(4-cyanophenyl)-1H-pyrazol-4-yl)methyl)-3-fluoropiperidin-4-yloxy)benzofuran-2-carboxamide]
< 0.1	Cc1c(C(=O)NC2CCN(Cc3ccccc3C#N)CC2)oc2cc(OC3CCN(c4ccc(C(F)(F)F)cc4)CC3)ccc12 [Compound 1-67, N-(1-(2-cyanobenzyl)piperidin-4-yl)-3-methyl-6-(1-(4-(trifluoromethyl)phenyl)piperidin-4-yloxy)benzofuran-2-carboxamide]
< 0.1	O=C(NC1CCN(Cc2cccnc2)CC1)c1cc2ccc(OC3CCN(c4ccc(C(F)(F)F)cc4)CC3)cc2o1 [Compound 1-96, N-(1-(pyridin-3-ylmethyl)piperidin-4-yl)-6-(1-(4-(trifluoromethyl)phenyl)piperidin-4-yloxy)benzofuran-2-carboxamide]
0.1 to 0.5	N#Cc1ccc(CN2CCC(NC(=O)c3ccc(OC4CCN(c5ccc(C(F)(F)F)cc5)CC4)nc3)CC2)cc1 [Compound 1-35, N-(1-(4-cyanobenzyl)piperidin-4-yl)-6-(1-(4-(trifluoromethyl)phenyl)piperidin-4-yloxy) nicotinamide]
< 0.1	CS(=O)(=O)c1ccc(CN2CC[C@@H](Oc3ccc4oc(C(=O)NC5CCN(Cc6ccc(C#N)cc6)CC5)cc4c3)[C@H](F)C2)cc1 [Compound 1-167, N-(1-(4-cyanobenzyl)piperidin-4-yl)-5-((3,4-trans)-3-fluoro-1-(4-(methylsulfonyl)benzyl)piperidin-4-yloxy)benzofuran-2-carboxamide]

Same assay, conditions: Table 8, compounds of Table 1; formate salt

EC50 [µM]	Compound
< 0.1	O=C(NC1CCN(Cc2ccncc2)CC1)c1cc2cc(OC3CCN(c4ccc(C(F)(F)F)cc4)CC3)ccc2o1 [Compound 1-105, N-(1-(pyridin-4-ylmethyl)piperidin-4-yl)-5-(1-(4-(trifluoromethyl)phenyl)piperidin-4-yloxy)benzofuran-2-carboxamide, formate salt]

Same assay, conditions: Table 9, compounds of Table 2

EC50 [µM]	Compound
10 to 50	Cn1cnc(CN2CCC(NC(=O)c3ccc4[nH]c5c(c4c3)CN(Cc3ccc(C(F)(F)F)cc3)CC5)CC2)c1 [Compound 2-53, N-(1-((1-methyl-1H-imidazol-4-yl)methyl)piperidin-4-yl)-2-(4-(trifluoromethyl)benzyl)-2,3,4,5-tetrahydro-1H-pyrido[4,3-b]indole-8-carboxamide]
> 100	O=C(NC1CCN(C(=O)c2cccnc2)CC1)c1ccc2[nH]c3c(c2c1)CN(c1ccc(F)cc1)CC3 [Compound 2-40, 2-(4-fluorophenyl)-N-(1-nicotinoylpiperidin-4-yl)-2,3,4,5-tetrahydro-1H-pyrido[4,3-b]indole-8-carboxamide]
5 to 10	O=C(NC1CCN(Cc2ccc(C(F)(F)F)cc2)CC1)c1ccc2[nH]c3c(c2c1)CN(c1ccc(F)cc1)CC3 [Compound 2-37, 2-(4-fluorophenyl)-N-(1-(4-(trifluoromethyl)benzyl)piperidin-4-yl)-2,3,4,5-tetrahydro-1H-pyrido[4,3-b]indole-8-carboxamide]

Same assay, conditions: Table 10, compounds of Table 3

EC50 [µM]	Compound
< 0.1	O=C(NC1CCN(Cc2ccncc2)CC1)c1cn2ccc(OC3CCN(c4ccc(C(F)(F)F)cc4)CC3)cc2n1 [Compound 3-17, N-(1-(pyridin-4-ylmethyl)piperidin-4-yl)-7-(1-(4-(trifluoromethyl)phenyl)piperidin-4-yloxy)imidazo[1,2-a]pyridine-2-carboxamide]
< 0.1	N#Cc1ccc(CN2CCC(NC(=O)c3cnc(OC4CCN(c5ccc(C#N)cc5)CC4)s3)CC2)cc1 [Compound 3-24, N-(1-(4-cyanobenzyl)piperidin-4-yl)-2-(1-(4-cyanophenyl)piperidin-4-yloxy)thiazole-5-carboxamide]

Same assay, conditions: Table 11, compounds of Table 4

EC50 [µM]	Compound
< 0.5	N#Cc1ccc(CN2CCC(NC(=O)c3ccc(C(=O)N4CCN(Cc5ccc(C#N)cc5)CC4)cn3)CC2)cc1 [Compound 4-1, 5-(4-(4-cyanobenzyl)piperazine-1-carbonyl)-N-(1-(4-cyanobenzyl)piperidin-4-yl)picolinamide]
< 0.5	N#Cc1ccc(CN2CCC(NC(=O)c3ccc(C(=O)N4CCN(Cc5ccc(F)cc5)CC4)cn3)CC2)cc1 [Compound 4-2, N-(1-(4-cyanobenzyl)piperidin-4-yl)-5-(4-(4-fluorobenzyl)piperazine-1-carbonyl)picolinamide]

Same assay, conditions: Table 12, compounds of Table 5

EC50 [µM]	Compound
> 100	O=C(NC1CCN(c2ccccc2)CC1)c1ccc(OC2CCN(c3ccc(C(F)(F)F)cc3)CC2)c(F)c1 [Compound 5-25, 3-fluoro-N-(1-phenylpiperidin-4-yl)-4-(1-(4-(trifluoromethyl)phenyl)piperidin-4-yloxy)benzamide]
1 to 10	O=C(NC1CCN(Cc2ccccc2)CC1)c1ccc(OC2CCN(C(=O)c3ccc(F)cc3)CC2)c(Cl)c1 [Compound 5-22, N-(1-benzylpiperidin-4-yl)-3-chloro-4-(1-(4-fluorobenzoyl)piperidin-4-yloxy)benzamide]
< 1	CC(C)(C)c1ccc(CN2CCC(Oc3ccc(C(=O)NC4CCN(Cc5ccccc5)CC4)cc3F)CC2)cc1 [Compound 5-20, N-(1-benzylpiperidin-4-yl)-3-fluoro-4-(1-(4-tert-butylbenzyl)piperidin-4-yloxy)benzamide]
< 1	O=C(NC1CCN(Cc2ccccc2)CC1)c1ccc(OC2CCN(c3ccc(C(F)(F)F)cc3)CC2)c(F)c1 [Compound 5-23, N-(1-benzylpiperidin-4-yl)-3-fluoro-4-(1-(4-(trifluoromethyl)phenyl)piperidin-4-yloxy)benzamide]
1 to 10	N#Cc1ccc(CN2CCC(Oc3cccc(C(=O)NC4CCN(Cc5ccccc5)CC4)c3)CC2)cc1 [Compound 5-50, N-(1-benzylpiperidin-4-yl)-3-(1-(4-cyanobenzyl)piperidin-4-yloxy)benzamide]
1 to 10	COc1cc(C(=O)NC2CCN(Cc3ccccc3)CC2)ccc1OC1CCN(c2cccs2)CC1 [Compound 5-8, N-(1-benzylpiperidin-4-yl)-3-methoxy-4-(1-(thiophen-2-yl)piperidin-4-yloxy)benzamide]
< 1	COc1ccc(CN2CCC(NC(=O)c3cccc(OC4CCN(Cc5ccc(-c6ccccn6)cc5)CC4)c3)CC2)cc1 [Compound 5-106, N-(1-(4-methoxybenzyl)piperidin-4-yl)-3-(1-(4-(pyridin-2-yl)benzyl)piperidin-4-yloxy)benzamide]

Same assay, conditions: Table 13, compounds of Table 6

EC50 [µM]	Compound
< 0.1	O=C(NC1CCN(Cc2cc(F)cc(F)c2)CC1)c1cc2cc(CN3CCC(Oc4ccc(C(F)(F)F)cc4)CC3)ccc2o1 [Compound 6-28, N-(1-(3,5-difluorobenzyl)piperidin-4-yl)-5-((4-(4-(trifluoromethyl)phenoxy)piperidin-1-yl)methyl) benzofuran-2-carboxamide]
< 0.1	N#Cc1ccc(Oc2ccc(NC(=O)c3cc4cc(C(=O)N5CCC(C(=O)c6ccc(F)cc6)CC5)ccc4o3)cn2)cc1 [Compound 6-17, N-(6-(4-cyanophenoxy)pyridin-3-yl)-5-(4-(4-fluorobenzoyl)piperidine-1-carbonyl)benzofuran-2-carboxamide]
< 0.1	CS(=O)(=O)c1ccc(CN2CCN(C(=O)c3ccc4oc(C(=O)NC5CCN(Cc6ccc(C#N)cc6)CC5)cc4c3)CC2)cc1Cl [Compound 6-112, 5-(4-(3-chloro-4-(methylsulfonyl)benzyl)piperazine-1-carbonyl)-N-(1-(4-cyanobenzyl)piperidin-4-yl)benzofuran-2-carboxamide]
< 0.1	N#Cc1ccc(CN2CCC(NC(=O)c3cc4cc(NC(=O)C5CCN(c6ccc(C#N)cc6)CC5)ccc4o3)CC2)cc1 [Compound 6-76, N-(2-(1-(4-cyanobenzyl)piperidin-4-ylcarbamoyl)benzofuran-5-yl)-1-(4-cyanophenyl)piperidine-4-carboxamide]

Same assay, conditions: Table 14, compounds of Table 7

EC50 [µM]	Compound
1 to 10	COc1ccc(CN2CCC(NC(=O)c3ccc(C(=O)N4CCC(Oc5ccc(S(C)(=O)=O)c(C)c5)CC4)nc3)CC2)cc1 [Compound 7-16, N-(1-(4-methoxybenzyl)piperidin-4-yl)-6-(4-(3-methyl-4-(methylsulfonyl)phenoxy)piperidine-1-carbonyl) nicotinamide]
< 1	COc1ccc(C(=O)C2CCN(C(=O)c3ccc(C(=O)NC4CCN(Cc5ccc(C#N)cc5)C[C@@H]4C)cn3)CC2)cc1 (stereo partly drawn) [Compound 7-93, N-((3,4-cis)-1-(4-cyanobenzyl)-3-methylpiperidin-4-yl)-6-(4-(4-methoxybenzoyl)piperidine-1-carbonyl)nicotinamide]
1 to 10	COc1ccc(C(=O)C2CCN(C(=O)c3ccc(C(=O)NC4CCN(Cc5ccc(C#N)cc5C)C[C@H]4F)cn3)CC2)cc1 (stereo partly drawn) [Compound 7-56, N-((3,4-trans)-1-(4-cyano-2-methylbenzyl)-3-fluoropiperidin-4-yl)-6-(4-(4-methoxybenzoyl)piperidine-1-carbonyl)nicotinamide]
1 to 10	COc1ccc(C(=O)C2CCCN(C(=O)c3ccc(C(=O)Nc4ccc(Oc5ccc(C(C)=O)cc5)nc4)cn3)C2)cc1 (stereo not shown) [Compound 7-11, N-(6-(4-acetylphenoxy)pyridin-3-yl)-6-(3-(4-methoxybenzoyl)piperidine-1-carbonyl)nicotinamide]
